Test results as given in the NIST ThermoML archive (doi:10.1016/j.jct.2016.01.017).
± gives the expanded uncertainty stated by the source.

Assay: activity coefficient (dimensionless); of the first substance listed, at infinite dilution; xn = mol fraction of the nth substance listed
Conditions: 100 kPa, Liquid, Chromatography, x1 = 0

SMILES | activity coefficient (308.15 K) | activity coefficient (318.15 K) | activity coefficient (328.15 K) | activity coefficient (338.15 K) | activity coefficient (348.15 K) | activity coefficient (358.15 K) | activity coefficient (368.15 K)
C1CCCCC1 [cyclohexane] + CCCC[n+]1ccc(C#N)cc1.O=S(=O)([N-]S(=O)(=O)C(F)(F)F)C(F)(F)F | 17.7 ± 1.5 | 16.3 ± 1.4 | 15.1 ± 1.3 | 14.2 ± 1.2 | 13.2 ± 1.1 | 12.4 ± 1.1 | 11.7 ± 1
C1=CCCCC1 [cyclohexene] + CCCC[n+]1ccc(C#N)cc1.O=S(=O)([N-]S(=O)(=O)C(F)(F)F)C(F)(F)F | 7.51 ± 0.65 | 7.4 ± 0.64 | 7.28 ± 0.63 | 7.19 ± 0.62 | 7.1 ± 0.61 | 7.1 ± 0.61 | 6.9 ± 0.6
C1CCCCCCC1 [cyclooctane] + CCCC[n+]1ccc(C#N)cc1.O=S(=O)([N-]S(=O)(=O)C(F)(F)F)C(F)(F)F | 26.5 ± 2.3 | 25.2 ± 2.2 | 24.1 ± 2.1 | 23.2 ± 2 | 22.4 ± 1.9 | 21.6 ± 1.9 | 20.9 ± 1.8
C1CCCC1 [cyclopentane] + CCCC[n+]1ccc(C#N)cc1.O=S(=O)([N-]S(=O)(=O)C(F)(F)F)C(F)(F)F | 12.7 ± 1.1 | 11.6 ± 1 | 10.7 ± 0.9 | 9.97 ± 0.86 | 9.31 ± 0.8 | 8.69 ± 0.75 | 8.14 ± 0.7
CCCCCCCCCC [decane] + CCCC[n+]1ccc(C#N)cc1.O=S(=O)([N-]S(=O)(=O)C(F)(F)F)C(F)(F)F | 124 ± 11 | 115 ± 10 | 107 ± 9 | 99.8 ± 8.6 | 93.8 ± 8.1 | 88.2 ± 7.6 | 83.6 ± 7.2
CCOCC [diethyl ether] + CCCC[n+]1ccc(C#N)cc1.O=S(=O)([N-]S(=O)(=O)C(F)(F)F)C(F)(F)F | 3.17 ± 0.27 | 3.24 ± 0.28 | 3.31 ± 0.29 | 3.37 ± 0.29 | 3.44 ± 0.3 | 3.5 ± 0.3 | 3.56 ± 0.31
CC(C)OC(C)C [diisopropyl ether] + CCCC[n+]1ccc(C#N)cc1.O=S(=O)([N-]S(=O)(=O)C(F)(F)F)C(F)(F)F | 9.7 ± 0.84 | 9.65 ± 0.83 | 9.59 ± 0.83 | 9.57 ± 0.83 | 9.53 ± 0.82 | 9.48 ± 0.82 | 9.45 ± 0.82
CCCOCCC [dipropyl ether] + CCCC[n+]1ccc(C#N)cc1.O=S(=O)([N-]S(=O)(=O)C(F)(F)F)C(F)(F)F | 8.88 ± 0.77 | 8.84 ± 0.76 | 8.83 ± 0.76 | 8.78 ± 0.76 | 8.75 ± 0.76 | 8.73 ± 0.75 | 8.71 ± 0.75
CCO [ethanol] + CCCC[n+]1ccc(C#N)cc1.O=S(=O)([N-]S(=O)(=O)C(F)(F)F)C(F)(F)F | 1.86 ± 0.16 | 1.74 ± 0.15 | 1.64 ± 0.14 | 1.55 ± 0.13 | 1.47 ± 0.12 | 1.39 ± 0.12 | 1.33 ± 0.11
CCOC(C)=O [ethyl acetate] + CCCC[n+]1ccc(C#N)cc1.O=S(=O)([N-]S(=O)(=O)C(F)(F)F)C(F)(F)F | 0.839 ± 0.07 | 0.89 ± 0.074 | 0.941 ± 0.077 | 0.995 ± 0.082 | 1.05 ± 0.09 | 1.1 ± 0.09 | 1.15 ± 0.1
CCc1ccccc1 [ethylbenzene] + CCCC[n+]1ccc(C#N)cc1.O=S(=O)([N-]S(=O)(=O)C(F)(F)F)C(F)(F)F | 2.49 ± 0.21 | 2.58 ± 0.22 | 2.67 ± 0.23 | 2.77 ± 0.24 | 2.85 ± 0.25 | 2.93 ± 0.25 | 3.03 ± 0.26
